Measured values taken from patent US11459338B2, “Heterocyclic compounds as PRMT5 inhibitors” (JUBILANT EPISCRIBE LLC, priority 2018, dated 2022).
Like-named read-outs stand apart in the source and are kept apart here.

Columns and labels:
Z-138 cells = assay: Z-138 long term proliferation assay (Cell Titer Glo); type: cell-based; settings: Homo sapiens; for GI50: 192 h, Z-138 cells, cell viability, day 8, read-out: PRMT5 Z138 GI50 Day 8 μM; for IC50: Z-138, 192 h, summary of Table 1, read-out: IC50 value (all the three assays): Z138 GI50 Day 8
How it was run: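 Z-138 cells exposed to ten-point 3-fold dilutions (top 10 μM, 0.3% DMSO) for 96 h at 37° C., 5% CO2, then re-dosed for four more days.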

PRMT5/MEP50 = target: T1, PRMT5/MEP50 (Homo sapiens, UniProt O14744); assay: PRMT5/MEP50 enzyme assay on peptide substrates (3H-SAM Flashplate); type: biochemical; settings: PRMT5/MEP50 10 nM, H4 1-15aa peptide 100 nM, 3H-SAM 1 μM
T1 construct: Full-length human PRMT5 (NP_006100)
T1 sequence (O14744 whole entry): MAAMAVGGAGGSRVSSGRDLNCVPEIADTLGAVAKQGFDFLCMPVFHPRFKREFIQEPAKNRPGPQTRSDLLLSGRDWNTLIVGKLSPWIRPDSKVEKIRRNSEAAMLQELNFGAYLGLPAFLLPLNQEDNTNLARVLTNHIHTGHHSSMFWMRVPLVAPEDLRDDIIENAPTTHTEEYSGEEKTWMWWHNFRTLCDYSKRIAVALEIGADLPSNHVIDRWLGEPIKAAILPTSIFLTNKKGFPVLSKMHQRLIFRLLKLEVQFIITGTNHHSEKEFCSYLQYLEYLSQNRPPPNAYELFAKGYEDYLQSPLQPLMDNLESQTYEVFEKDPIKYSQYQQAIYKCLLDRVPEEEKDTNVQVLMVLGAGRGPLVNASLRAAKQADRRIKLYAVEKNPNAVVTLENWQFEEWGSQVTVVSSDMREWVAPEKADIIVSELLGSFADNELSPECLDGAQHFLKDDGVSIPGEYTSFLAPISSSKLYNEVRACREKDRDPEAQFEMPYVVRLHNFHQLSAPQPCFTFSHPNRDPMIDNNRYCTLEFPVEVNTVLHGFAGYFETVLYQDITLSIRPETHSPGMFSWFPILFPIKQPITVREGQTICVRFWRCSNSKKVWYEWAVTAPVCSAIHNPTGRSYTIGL
T1 sequence (Q9BQA1 whole entry partner): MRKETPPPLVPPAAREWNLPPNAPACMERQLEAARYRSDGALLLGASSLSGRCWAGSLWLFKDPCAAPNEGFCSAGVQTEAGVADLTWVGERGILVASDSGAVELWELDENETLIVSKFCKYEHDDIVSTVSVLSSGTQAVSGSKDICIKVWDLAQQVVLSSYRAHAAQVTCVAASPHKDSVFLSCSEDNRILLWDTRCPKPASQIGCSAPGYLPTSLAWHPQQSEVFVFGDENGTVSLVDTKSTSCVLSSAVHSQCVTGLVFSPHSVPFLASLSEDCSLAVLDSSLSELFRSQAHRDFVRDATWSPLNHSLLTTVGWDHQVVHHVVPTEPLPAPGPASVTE

[1] = tested on: Symmetric di-methyl arginine in Z-138 cells; assay: Z-138 methylation assay, ELISA for detection of symmetric di-methyl arginine; type: cell-based; settings: Homo sapiens
Method: General reagents. […] Iscove's Modified Dulbecco's Medium (IMDM), Horse serum, penicillin-streptomycin, PBS and TMB-ELISA substrate solution were purchased from ThermoFisher Scientific. Symmetric di-methyl arginine antibody was purchased from Cell Signaling Technologies.Anti-SNRPD3/SmD3 antibody was purchased from Sigma-Aldrich.
ELISA for detection of Symmetric di-methyl arginine. […] A compound source plate was prepared by performing ten-point 3-fold dilution in DMSO, such that the final top concentration of the compound was 10 μM, and DMSO was 0.3%. The total volume of compounds added was 20 μL. The cells were incubated for 96 h at 37° C., 5% CO2. Z-138 cells were directly lysed in media with 3× Lysis Buffer (1×: 10 mM HEPES pH7.9, 5 mM MgCl2, 1M NaCl, 0.25M Sucrose, 1% Triton X-100, 1 mM PMSF, Protease & Phosphatase inhibitors). […] Plates were incubated at room temperature for a minimum of 3 h and then washed with PBS-Tween 20 (0.05%). The plates were blocked with 5% BSA at room temperature for 1 h, washed with PBS-Tween 20 and incubated with primary antibody at 4 C overnight.

[2] = Z-138, 96 h, summary of Table 1, read-out: IC50 value (all the three assays): Z138 SDMA ELISA Day 4
[3] = Z-138 cells, 96 h (day 4), read-out: PRMT5 Z138 SDMA ELISA Day 4 μM

| SMILES | IC50 (PRMT5/MEP50) [µM] | IC50 [1, 2] [µM] | IC50 [1, 3] [µM] | GI50 (Z-138 cells) [µM] | IC50 (Z-138 cells) [µM] |
| --- | --- | --- | --- | --- | --- |
| CC(C)Cn1cc(-c2ccc3nc(C(=O)NCC(O)CN4CCc5ccccc5C4)cn3c2)cn1 (stereo in doubt) [Example 18, (S)—N-(3-(3,4-dihydroisoquinolin-2(1H)-yl)-2-hydroxypropyl)-6-(1-isobutyl-1H-pyrazol-4-yl)imidazo[1,2-a]pyridine-2-carboxamide] | 0.01 to 1 | 0.01 to 1 | 0.01 to 1 | 0.01 to 1 | 0.01 to 1 |
| O=C(NCC(O)CN1CCc2ccccc2C1)c1cn2cc(C(F)(F)F)ccc2n1 (stereo not shown) [Example 1, N-(3-(3,4-dihydroisoquinolin-2(1H)-yl)-2-hydroxypropyl)-6-(trifluoromethyl)imidazo[1,2-a]pyridine-2-carboxamide] | 0.01 to 1 | 0.01 to 1 | 0.01 to 1 | 0.01 to 1 | 0.01 to 1 |
| O=C(NC[C@H](O)CN1CCc2ccccc2C1)c1cn2cc(C(F)(F)F)ccc2n1 [Example 8, (S)—N-(3-(3,4-dihydroisoquinolin-2(1H)-yl)-2-hydroxypropyl)-6(trifluoromethyl) imidazo[1,2-a]pyridine-2-carboxamide] | 0.01 to 1 | 0.01 to 1 | 0.01 to 1 | 0.01 to 1 | 0.01 to 1 |
| O=C(NCC(O)CN1CCc2ccccc2C1)c1cn2cc(-c3ccccc3)ccc2n1 (stereo not shown) [Example 10, N-(3-(3,4-dihydroisoquinolin-2(1H)-yl)-2-hydroxypropyl)-6-phenylimidazo[1,2-a]pyridine-2-carboxamide] | 0.01 to 1 | 0.01 to 1 | 0.01 to 1 | 0.01 to 1 | 0.01 to 1 |
| O=C(NCC(O)CN1CCc2ccccc2C1)c1cn2cc(-c3ccc(F)cc3)ccc2n1 (stereo not shown) [Example 11, N-(3-(3,4-dihydroisoquinolin-2(1H)-yl)-2-hydroxypropyl)-6-(4-fluorophenyl) imidazo[1,2-a]pyridine-2-carboxamide] | 0.01 to 1 | 0.01 to 1 | 0.01 to 1 | 0.01 to 1 | 0.01 to 1 |
| N#Cc1ccc(-c2ccc3nc(C(=O)NC[C@H](O)CN4CCc5ccccc5C4)cn3c2)cc1 [Example 14, (S)-6-(4-cyanophenyl)-N-(3-(3,4-dihydroisoquinolin-2(1H)-yl)-2-hydroxypropyl) imidazo[1,2-a]pyridine-2-carboxamide] | 0.01 to 1 | 0.01 to 1 | 0.01 to 1 | 0.01 to 1 | 0.01 to 1 |
| O=C(NC[C@H](O)CN1CCc2ccccc2C1)c1cn2cc(-c3cnn([C@@H]4CCOC4)c3)ccc2n1 [Example 20, N—((S)-3-(3,4-dihydroisoquinolin-2(1H)-yl)-2-hydroxypropyl)-6-(1-((R)-tetrahydrofuran-3-yl)-1H-pyrazol-4-yl)imidazo[1,2-a]pyridine-2-carboxamide] | 0.01 to 1 | 0.01 to 1 | 0.01 to 1 | 0.01 to 1 | 0.01 to 1 |
| O=C(NC[C@H](O)CN1CCc2ccccc2C1)c1cn2c(n1)CCC(C1CC1)C2 (stereo partly drawn) [Example 104, 6-cyclopropyl-N—((S)-3-(3,4-dihydroisoquinolin-2(1H)-yl)-2-hydroxypropyl)-5,6,7,8-tetrahydroimidazo[1,2-a]pyridine-2-carboxamide] |  |  | 0.01 to 1 | 1 to 5 |  |
| CCCC1CCn2cc(C(=O)NCC(O)CN3CCc4ccccc4C3)nc2C1 (stereo not shown) [Example 105, N-(3-(3,4-dihydroisoquinolin-2(1H)-yl)-2-hydroxypropyl)-7-propyl-5,6,7,8 tetrahydroimidazo[1,2-a]pyridine-2-carboxamide] |  |  | 0.01 to 1 | 1 to 5 |  |
| Cn1cc([C@@H]2CCc3nc(C(=O)NC[C@H](O)CN4CCc5ccccc5C4)cn3C2)cn1 [Example 120B, (S)—N—((S)-3-(3,4-dihydroisoquinolin-2(1H)-yl)-2-hydroxypropyl)-6-(1-methyl-1H-pyrazol-4-yl)-5,6,7,8-tetrahydroimidazo[1,2-a]pyridine-2-carboxamide] | 0.01 to 1 |  |  | 1 to 5 |  |

Continued, in another order:

| IC50 (PRMT5/MEP50) [µM] | IC50 [1, 2] [µM] | IC50 [1, 3] [µM] | SMILES | GI50 (Z-138 cells) [µM] | IC50 (Z-138 cells) [µM] |
| --- | --- | --- | --- | --- | --- |
| 0.01 to 1 | 0.01 to 1 | 0.01 to 1 | CC(C)c1ccc2nc(C(=O)NCC(O)CN3CCc4ccccc4C3)cn2c1 (stereo in doubt) [Example 12, (S)—N-(3-(3,4-dihydroisoquinolin-2(1H)-yl)-2-hydroxypropyl)-6-isopropylimidazo [1,2-a]pyridine-2-carboxamide] | 0.01 to 1 | 0.01 to 1 |
| 0.01 to 1 | 0.01 to 1 | 0.01 to 1 | Cc1ccc2nc(C(=O)NCC(O)CN3CCc4ccccc4C3)cn2c1 (stereo not shown) [Example 2, N-(3-(3,4-dihydroisoquinolin-2(1H)-yl)-2-hydroxypropyl)-6-methylimidazo[1,2-a]pyridine-2-carboxamide] | 0.01 to 1 | 0.01 to 1 |
| 0.01 to 1 | 0.01 to 1 | 0.01 to 1 | CCn1cc(-c2ccc3nc(C(=O)NC[C@H](O)CN4CCc5ccccc5C4)cn3c2)cn1 [Example 4, (S)—N-(3-(3,4-dihydroisoquinolin-2(1H)-yl)-2-hydroxypropyl)-6-(1-ethyl-1H-pyrazol-4-yl)imidazo [1,2-a]pyridine-2-carboxamide] | 0.01 to 1 | 0.01 to 1 |
| 0.01 to 1 | 0.01 to 1 | 0.01 to 1 | CCCc1nc(-c2ccc3nc(C(=O)NC[C@H](O)CN4CCc5ccccc5C4)cn3c2)no1 [Example 5, (S)—N-(3-(3,4-dihydroisoquinolin-2(1H)-yl)-2-hydroxypropyl)-6-(5-propyl-1,2,4-oxadiazol-3-yl)imidazo[1,2-a]pyridine-2-carboxamide] | 0.01 to 1 | 0.01 to 1 |
| 0.01 to 1 | 0.01 to 1 | 0.01 to 1 | Cc1nc(-c2ccc3nc(C(=O)NC[C@H](O)CN4CCc5ccccc5C4)cn3c2)no1 [Example 6, (S)—N-(3-(3,4-dihydroisoquinolin-2(1H)-yl)-2-hydroxypropyl)-6-(5-methyl-1,2,4-oxadiazol-3-yl)imidazo[1,2-a]pyridine-2-carboxamide] | 0.01 to 1 | 0.01 to 1 |
| 1 to 5 |  | 0.01 to 1 | COc1ccc2nc(C(=O)NCC(O)CN3CCc4ccccc4C3)cn2c1 (stereo not shown) [Example 9, N-(3-(3,4-dihydroisoquinolin-2(1H)-yl)-2-hydroxypropyl)-6-methoxyimidazo [1,2a]pyridine-2-carboxamide] | 1 to 5 |  |
| > 5 |  | 0.01 to 1 | Cn1cc(-c2ccc3nc(C(=O)NC[C@H](O)CN4CCc5ccccc5C4)cn3c2)cn1 [Example 13, (S)—N-(3-(3,4-dihydroisoquinolin-2(1H)-yl)-2-hydroxypropyl)-6-(1-methyl-1H-pyrazol-4-yl)imidazo[1,2-a]pyridine-2-carboxamide] | > 5 |  |
| 0.01 to 1 | 0.01 to 1 | 0.01 to 1 | Cc1noc(C)c1-c1ccc2nc(C(=O)NC[C@H](O)CN3CCc4ccccc4C3)cn2c1 [Example 15, (S)—N-(3-(3,4-dihydroisoquinolin-2(1H)-yl)-2-hydroxypropyl)-6-(3,5-dimethylisoxazol-4-yl)imidazo[1,2-a]pyridine-2-carboxamide] | 0.01 to 1 | 0.01 to 1 |
| 0.01 to 1 | 0.01 to 1 | 0.01 to 1 | O=C(NC[C@H](O)CN1CCc2ccccc2C1)c1cn2cc(-c3cc(F)cc(F)c3)ccc2n1 [Example 16, (S)-6-(3,5-difluorophenyl)-N-(3-(3,4-dihydroisoquinolin-2(1H)-yl)-2-hydroxypropyl)imidazo[1,2-a]pyridine-2-carboxamide] | 0.01 to 1 | 0.01 to 1 |
| 0.01 to 1 | 0.01 to 1 | 0.01 to 1 | O=C(NC[C@H](O)CN1CCc2ccccc2C1)c1cn2cc(-c3ccc(F)cc3)ccc2n1 [Example 17, (S)—N-(3-(3,4-dihydroisoquinolin-2(1H)-yl)-2-hydroxypropyl)-6-(4fluorophenyl) imidazo[1,2-a]pyridine-2-carboxamide] | 0.01 to 1 | 0.01 to 1 |
| 0.01 to 1 | 0.01 to 1 | 0.01 to 1 | O=C(NC[C@H](O)CN1CCc2ccccc2C1)c1cn2cc(C3=CCOCC3)ccc2n1 [Example 19, (S)-6-(3,6-dihydro-2H-pyran-4-yl)-N-(3-(3,4-dihydroisoquinolin-2(1H)-yl)-2-hydroxypropyl)imidazo[1,2-a]pyridine-2-carboxamide] | 0.01 to 1 | 0.01 to 1 |
| 0.01 to 1 |  |  | N#Cc1ccc2nc(C(=O)NC[C@H](O)CN3CCc4ccccc4C3)cn2c1 [Example 123, (S)-6-cyano-N-(3-(3,4-dihydroisoquinolin-2(1H)-yl)-2-hydroxypropyl)imidazo[1,2-a]pyridine-2-carboxamide] | 0.01 to 1 |  |
